Columns and labels:
Assay in all cases: relative viability (nuclei count vs DMSO), 5 days (fraction); higher = more cells survive
MIM1 = compound: CC1=CSC(=NC2CCCCC2)N1/N=C/C3=C(C(=C(C=C3)O)O)O [MIM1]
Method in brief: (§1)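 Following overnight incubation at 37 °C, lung cancer cell lines in 1536-well plates were pinned with five library-drug doses (not always all listed) in √10 steps on vehicle-anchored plates. The cells then spent 5 days without medium change before a combined fix, permeabilisation and Hoechst stain, 4× imaging and MetaXpress nuclear counts. Viability is the treated-to-vehicle ratio of nuclei, taken as the median across plates. Only plates with control CV below 25% and at least one doubling passed.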

Luminespib = compound: CCNC(=O)c1noc(-c2cc(C(C)C)c(O)cc2O)c1-c1ccc(CN2CCOCC2)cc1 [Luminespib]
Method in brief: as §1

Saracatinib = compound: CN1CCN(CCOc2cc(OC3CCOCC3)c3c(Nc4c(Cl)ccc5c4OCO5)ncnc3c2)CC1 [Saracatinib]
Method in brief: as §1

Nilotinib = compound: Cc1cn(-c2cc(NC(=O)c3ccc(C)c(Nc4nccc(-c5cccnc5)n4)c3)cc(C(F)(F)F)c2)cn1 [Nilotinib]
Method in brief: as §1

Lenalidomide = compound: Nc1cccc2c1CN(C1CCC(=O)NC1=O)C2=O [Lenalidomide]
Method in brief: as §1

Cell Line	relative viability (MIM1; 0.2 µM)	relative viability (MIM1; 0.6325 µM)	relative viability (MIM1; 2 µM)	relative viability (MIM1; 6.325 µM)	relative viability (MIM1; 20 µM)	relative viability (Luminespib; 0.002 µM)	relative viability (Luminespib; 0.006325 µM)	relative viability (Luminespib; 0.01 µM, anchor plate)	relative viability (Luminespib; 0.02 µM)	relative viability (Luminespib; 0.06325 µM)	relative viability (Luminespib; 0.2 µM)	relative viability (Saracatinib; 0.02 µM)	relative viability (Saracatinib; 0.2 µM)	relative viability (Saracatinib; 0.6325 µM)	relative viability (Saracatinib; 2 µM)	relative viability (Nilotinib; 0.001 µM)	relative viability (Nilotinib; 0.003162 µM)	relative viability (Nilotinib; 0.01 µM)	relative viability (Nilotinib; 0.1 µM)	relative viability (Lenalidomide; 0.253 µM)	relative viability (Lenalidomide; 0.8 µM)	relative viability (Lenalidomide; 2.53 µM)	relative viability (Lenalidomide; 8 µM)	relative viability (Nilotinib; 0.03162 µM)
NCI-H1792	0.966	0.79	0.728	0.76	0.659	0.926	0.71	0.52	0.348	0.167	0.107	1.09	0.726	1.03	0.776	0.706	0.817	1.07	0.831	1.09	0.715	1.35	0.419	
NCI-H1793	0.874		0.838	0.809	0.858	0.775	0.84	0.192	0.248	0.137	0.15	0.909	0.674	1.01	0.666	0.91	1.22	1.28	0.204	0.962		1.08	0.37	0.623
NCI-H1915	1.01	0.702	0.922	0.477	0.398	0.86	0.878	0.795	0.878	0.859	0.119	0.993	0.91	1.02	0.911	0.916	1.07	1.11	0.432	0.971	0.836	1.08	0.96	0.955
NCI-H1944	0.982	0.864	0.63	0.568	0.477	0.936	0.954	0.749	0.595	0.721	0.333	0.996		0.915	0.555	1	1.11	1.21	0.988	0.989	0.743	0.973	0.713	0.924
NCI-H1975	0.959	0.968	0.84	0.609	0.424	0.981	0.91	0.235	0.507	0.158	0.147	1.04	0.952	1.02	0.698	0.871	1	0.981	0.724	1.03	0.821	1.1	0.889	0.784
NCI-H1993	0.929	0.944	0.907	0.678	0.561	0.995	0.898	0.875	0.584	0.565	0.415	0.951	0.8	0.457	0.648	0.912	0.95	0.899	0.613	0.941	0.784	1.05	0.642	0.901
NCI-H2009	0.996	0.965	1.04	0.716	0.29	1.03	0.923	1.01	0.903	0.0828	0.0845	1.04	0.906	0.997	0.782	0.9	1.05	1.18	0.588	0.994	0.986	1.13	1.01	1
NCI-H2023	0.896	0.954	0.847	0.43	0.0909	0.903	0.999	0.769	0.5	0.062	0.058	1.04	0.663	0.905	0.821	0.916	0.9	1.31	0.537	0.928	1.04	1.13	0.968	0.83
NCI-H2085	0.995	0.974	1.02	0.817	0.947	0.964	0.931	0.466	0.779	0.576	0.384	1.02	0.893	1.09	0.967	1.03	1.06	1.12	0.754	0.975	0.811	1.06	0.944	0.91
NCI-H2087	1.03	0.943	1.03	0.696	0.583	1.07	0.894	0.192	0.625	0.143	0.122	1.11	0.873	1.11	1.01	0.813	0.981	0.992	0.299	1.03	0.892	1.14	0.888	0.443
NCI-H2126	1.04	0.91	1.04	0.897	0.688	0.967	0.962	0.919	0.646	0.756	0.26	1.07	0.965	0.931	0.816	0.995	1.09	1.03	0.601	1.01	0.859	1.08	0.788	0.937

— the supplement of paper PMC10307832
